Consider three molecules from patent US20240262835A1, “PRMT5 INHIBITING COMPOUNDS AND USES THEREOF” (ANTENGENE DISCOVERY LIMITED, priority 2023, published 2024).

Read-outs that look alike come from different tables or passages of the source.

The nature of data set [1]: Liver microsome metabolic stability (LMS) assay, cynomolgus monkey. For orientation: Liver microsomes are a subcellular fraction often used to study metabolism.
The nature of data set [2]: Liver microsome metabolic stability (LMS) assay, dog.
Data set [3] can be described thus: Hepatic metabolic stability (HMS) assay, rat hepatocytes. To be noted: rat, cryopreserved hepatocytes.
Description: 1) 10 mM test compounds were provided.
(§8) 2) 30 mM positive control stock solutions: Dissolved accurate amount of positive control compounds in dimethyl sulfoxide (DMSO).
(§9) 3) 1000× Stock Solution: Diluted 10 mM test compounds and 30 mM positive control compounds to 1 mM and 3 mM with DMSO in 96-well plates.
(§10) 4) 100× Dosing Solution: Diluted 1 mM test compounds and 3 mM positive control compounds to 100 μM and 300 μM dosing solutions with ACN.
(§11) 5) Preparation of 0.5×10^6/mL cells suspension: cryopreserved cells were thawed, isolated and suspended in Incubation Medium, then diluted with pre-warmed Incubation Medium to 0.5×10^6 cells/mL.
(§12) 6) Add 198 μL of pre-warmed cell suspensions in 96-well plates.
(§13) 7) Preparation of Quenching Plate: Transfer 125 μL of stop solution in a set of pre-labeled 96-well plates.
(§14) 8) Spike 2 μL dosing solution to each well of 96-well plates in duplicate.
(§15) 9) For TO Samples, mix to achieve a homogenous suspension for about 1 min, then immediately transfer 25 μL of each sample into well containing 125 μL of ice-cold stop solution followed by mixing.
(§16) 10) Incubate all plates at 37° C. in a 95% humidified incubator at 5% CO2 to start the reactions with constant shaking.
(§17) 11) At 15, 30, 60 and 90 min, mix samples and then transfer 25 μL of each sample at each time point to well containing 125 μL of ice-cold stop solution followed by mixing.
(§18) 12) Medium Control (MC) sample plates (labeled as TO-MC and T90-MC) are prepared in the same way as cell incubation except that medium was used instead of cell suspension.
(§19) 13) At each corresponding time point, stop the reactions by removing the plates from incubator and mixing with 125 μL of ice-cold stop solution.
(§20) 14) Vortex the plates immediately on a plate shaker at 600 rpm for 10 minutes. Then, centrifuge all sample plates at 3220×g for 20 min at 4° C.
(§21) 15) After centrifugation, 80 μL/well of supernatant in the sample plates are transferred to another set of pre-labeled 96-well plates which containing 240 μL of ultra pure water according to the plate map.
(§22) 16) Analytical plates are sealed and store at 4° C. until LC-MS/MS analysis.
(§23) The remaining percents of test articles after incubation were calculated by the follow equations:
(§24) Use the following equation of first order kinetics to calculate T1/2 and CLint:
A short description of data set [4]: Hepatic metabolic stability (HMS) assay, mouse hepatocytes. To be noted: mouse, cryopreserved hepatocytes.
Description: 1) 10 mM test compounds were provided.
as §8, §9, §10, §11, §12, §13, §14, §15, §16, §17, §18, §19, §20, §21, §22, §23, §24
Data set [5] can be described thus: Hepatic metabolic stability (HMS) assay, dog hepatocytes. The conditions noted are these: dog, cryopreserved hepatocytes.
Description: 1) 10 mM test compounds were provided.
as §8, §9, §10, §11, §12, §13, §14, §15, §16, §17, §18, §19, §20, §21, §22, §23, §24
The nature of another data set: in vitro. The conditions noted are these: dog, microsomes.
Data set [6] relates to cryopreserved hepatocytes.
Description: 1) 10 mM test compounds were provided.
as §8, §9, §10, §11, §12, §13, §14, §15, §16, §17, §18, §19, §20, §21, §22, §23, §24
Data set [7] concerns cryopreserved hepatocytes. The source holds these as a separate data set.
Description: 1) 10 mM test compounds were provided.
as §8, §9, §10, §11, §12, §13, §14, §15, §16, §17, §18, §19, §20, §21, §22, §23, §24
The subject of data set [8] is cryopreserved hepatocytes. This is another data set of the same source.
For data set [9], the system named is cryopreserved hepatocytes. This is another data set of the same source.
Description: 1) 10 mM test compounds were provided.
as §8, §9, §10, §11, §12, §13, §14, §15, §16, §17, §18, §19, §20, §21, §22, §23, §24
The next data set addresses CYP3A4 (Homo sapiens (Human), UniProt P08684). The data set is described as follows: CYP isoforms inhibitory assay in human liver microsome, CYP3A4. On the procedure:
(§1) CYP isoforms inhibitory activities of test compounds were measured in human liver microsome.
(§2) Preparation details of these substrates are given in below table. The substrate stock solution was stored in a −20° C. freezer. Prior to use, the substrate stock solution was removed from the freezer and allowed to rise to room temperature. Then the substrate stock solution was mixed on a whirly mixer for 30 seconds.
(§3) HLMs were stored in a −80° C. freezer. Prior to use, the pooled HLM was removed from the freezer and allowed to thaw in a 37° C. water bath and then stored on wet ice.
(§4) The positive control inhibitors and their concentrations used by each isozyme are summarized below.
(§5) All samples were incubated in a 37° C. water bath, with three parallels for each concentration of the test compound and two parallels for each concentration of the positive control inhibitor. 100 μL of microsome working solution was taken and added 2 μL of the test product or positive inhibitor working solution. 2 μL solvents was added to the solvent control, and put in a water bath to pre-incubate for 10 min. After pre-incubation, 98 μL of NADPH regeneration solution was added to all samples to start the reaction. Then the mixture was put back in the water bath and incubated for a certain period of time.
(§6) The reaction was quenched by 200 μL stop solution. […]
(§7) IC50 values were determined using 3- or 4-parameter logistic equation.

Another data set addresses CYP2C19 (Homo sapiens (Human), UniProt P33261). The data set is described as follows: CYP isoforms inhibitory assay in human liver microsome, CYP2C19. The conditions noted are these: substrate s-mephenytoin. The class given is in vitro ADME. As for the experimental part:
as §1, §2, §3, §4, §5, §6, §7

Sequence of CYP3A4 (P08684 whole entry, canonical isoform): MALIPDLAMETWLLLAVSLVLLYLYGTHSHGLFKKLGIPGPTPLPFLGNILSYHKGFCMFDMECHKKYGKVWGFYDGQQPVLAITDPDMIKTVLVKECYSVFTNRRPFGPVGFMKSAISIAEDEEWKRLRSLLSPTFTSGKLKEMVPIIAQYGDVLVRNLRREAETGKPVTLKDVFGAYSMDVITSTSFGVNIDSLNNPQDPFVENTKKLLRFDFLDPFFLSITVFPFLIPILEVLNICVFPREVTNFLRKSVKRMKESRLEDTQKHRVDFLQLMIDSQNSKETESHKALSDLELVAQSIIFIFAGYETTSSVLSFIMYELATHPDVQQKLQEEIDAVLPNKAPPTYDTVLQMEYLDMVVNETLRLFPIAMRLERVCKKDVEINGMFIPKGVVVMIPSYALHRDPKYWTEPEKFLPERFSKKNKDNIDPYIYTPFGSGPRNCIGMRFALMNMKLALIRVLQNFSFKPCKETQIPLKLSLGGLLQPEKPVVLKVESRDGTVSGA
Sequence of CYP2C19 (P33261 whole entry, canonical isoform): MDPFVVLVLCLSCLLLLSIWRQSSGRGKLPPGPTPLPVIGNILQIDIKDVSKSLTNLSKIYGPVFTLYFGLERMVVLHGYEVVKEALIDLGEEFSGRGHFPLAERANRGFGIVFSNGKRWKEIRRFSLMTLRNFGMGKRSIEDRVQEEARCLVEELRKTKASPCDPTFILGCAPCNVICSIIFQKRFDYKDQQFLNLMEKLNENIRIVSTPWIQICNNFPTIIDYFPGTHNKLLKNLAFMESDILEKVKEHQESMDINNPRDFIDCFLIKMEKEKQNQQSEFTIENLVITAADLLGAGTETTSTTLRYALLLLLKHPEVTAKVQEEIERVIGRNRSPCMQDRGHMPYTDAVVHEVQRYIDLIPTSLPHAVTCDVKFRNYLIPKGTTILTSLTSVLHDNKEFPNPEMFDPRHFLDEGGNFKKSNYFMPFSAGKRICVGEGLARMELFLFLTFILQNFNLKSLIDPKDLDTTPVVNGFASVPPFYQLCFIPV

For `CN(C(=O)c1cc2c(cn1)nc(N)c1cncn12)C1CC(F)(F)c2cc(C(F)(F)F)ccc21` (stereo not shown) [Compound 24], the “CLint (mic) C” value in data set [1] (cynomolgus monkey liver microsome) was 9.9 µL/min/mg. The “T1/2 of LMS, C” value in data set [1] (cynomolgus monkey liver microsome 0.5 mg protein/mL, 1 μM, NADPH) stood at 2.338 h. In addition, the “CLint (liver) C” value in data set [1] (cynomolgus monkey liver microsome, scaled to liver) is recorded as 13.3 mL/min/kg. The “CLint (mic) D” value in data set [2] (dog liver microsome) is below 9.6 µL/min/mg. Besides, the “T1/2 of LMS, D” value in [2] (dog liver microsome 0.5 mg protein/mL, 1 μM, NADPH) was above 2.42 h. Moreover, the “CLint (liver) D” value in [2] (dog liver microsome, scaled to liver) is below 13.8 mL/min/kg.

One may read the half-life as how long it takes for the measured level to halve. For `CN(C(=O)c1ccc2nc(N)c3cncn3c2c1)[C@@H]1COc2cc(C(F)(F)F)ccc21` [Compound 12], the half-life at 1 μM was 2.26 h in data set [3], 1.86 h in data set [4], 2.12 h in data set [5] and above 2.42 h in “in vitro”.

A word on the IC50: it is the midpoint of a concentration-inhibition curve. For the molecule `CN(C(=O)c1ccc2nc(N)c3cncn3c2c1)C1COc2cc(C(F)(F)F)ccc21` (stereo not shown) [Compound 17], the “CLint (liver) R” value in [6] is listed as 49.8 mL/min/kg. In data set [6] (rat), the “CLint (hep) R” value turned out to be 10.6 μL/min/10^6 and the “T1/2 (hepatocytes) R” value stood at 2.172 h. Further, in data set [7], the “CLint (liver) H” value stood at 20.2 mL/min/kg. In addition, in data set [7] (human), the “CLint (hep) H” value was 7.3 μL/min/10^6 and the “T1/2 (hepatocytes) H” value stood at 3.18 h. Also, the “CLint (liver) C” value in data set [8] is given as 62.0 mL/min/kg. Further, in [8] (cynomolgus monkey), the “CLint (hep) C” value is 17.2 μL/min/10^6 and the “T1/2 (hepatocytes) C” value was found to be 1.34 h. In addition, the “CLint (liver) D” value in data set [9] is recorded as 46.9 mL/min/kg. Besides, in [9] (dog), the “CLint (hep) D” value was found to be 6.8 μL/min/10^6 and the “T1/2 (hepatocytes) D” value was 3.39 h. At CYP3A4 (microsomes), this molecule returned an IC50 of 27.3 µM. At CYP3A4 (read-out: IC50 CYP3A4 (midazolam), human liver microsome, substrate midazolam), the IC50 was above 30 µM. The IC50 against CYP2C19 was determined as 15.1 µM.
